# System: severe or critical COVID-19 infection
# Assay: Randomized, double-blind, placebo-controlled study of tradipitant in hospitalized patients with COVID-19 pneumonia (interim analysis, ITT)
# Assay type: in vivo
# Details: ITT; for Hazard ratio (95% CI), responder as improvement of 2 or more points: tradipitant vs placebo, Cox model, >1 benefit for tradipitant
# [1] = Day 7, ordinal score at baseline 2, tradipitant N = 4
# [2] = Day 7, ordinal score at baseline 3, tradipitant N = 13
# [3] = Day 7, ordinal score at baseline 4, tradipitant N = 9
# [4] = Day 7, overall, tradipitant N = 28
# [5] = Day 28, ordinal score at baseline 2, tradipitant N = 4
# [6] = Day 28, ordinal score at baseline 3, tradipitant N = 13
# [7] = Day 28, ordinal score at baseline 4, tradipitant N = 9
# [8] = Day 28, overall, tradipitant N = 28
# [9] = ordinal score at baseline 2, tradipitant N = 4
# [10] = ordinal score at baseline 3, tradipitant N = 13
smiles,measurement,setting,value
O=C(c1ccccc1Cl)c1cccnc1-c1nnn(Cc2cc(C(F)(F)F)cc(C(F)(F)F)c2)c1-c1ccncc1 [Tradipitant],Median time to responder,[1],4 days
same,"Mortality, KM estimate",[1],25.0%
same,No. of responders (improvement of 2 or more points on 7 point ordinal scale),[1],3
same,"Mortality, KM estimate",[2],0.0%
same,No. of responders (improvement of 2 or more points on 7 point ordinal scale),[2],2
same,Median time to responder,[3],4 days
same,"Mortality, KM estimate",[3],25.0%
same,No. of responders (improvement of 2 or more points on 7 point ordinal scale),[3],6
same,"Mortality, KM estimate",[4],9.8%
same,No. of responders (improvement of 2 or more points on 7 point ordinal scale),[4],13
same,"Hazard ratio (95% CI), responder as improvement of 2 or more points","Day 7, overall",2.55
same,Median time to responder,[5],4 days
same,"Mortality, KM estimate",[5],50.0%
same,No. of responders (improvement of 2 or more points on 7 point ordinal scale),[5],3
same,Median time to responder,[6],27 days
same,"Mortality, KM estimate",[6],9.1%
same,No. of responders (improvement of 2 or more points on 7 point ordinal scale),[6],4
same,Median time to responder,[7],4 days
same,"Mortality, KM estimate",[7],25.0%
same,No. of responders (improvement of 2 or more points on 7 point ordinal scale),[7],7
same,Median time to responder,[8],10 days
same,"Mortality, KM estimate",[8],20.4%
same,No. of responders (improvement of 2 or more points on 7 point ordinal scale),[8],16
same,"Hazard ratio (95% CI), responder as improvement of 2 or more points","Day 28, overall",1.55
same,No. of deaths by day 7,[9],1
same,No. of deaths by day 28,[9],2
same,"Ordinal Score at Day 7 = 1 (Death), % of patients",[9],(25.0) %
same,"Ordinal Score at Day 7 = 1 (Death), no. of patients",[9],1
same,"Ordinal Score at Day 7 = 2 (Hospitalized, on invasive mechanical ventilation or ECMO), % of patients",[9],(25.0) %
same,"Ordinal Score at Day 7 = 2 (Hospitalized, on invasive mechanical ventilation or ECMO), no. of patients",[9],1
same,"Ordinal Score at Day 7 = 3 (Hospitalized, on non-invasive ventilation or high flow oxygen devices), % of patients",[9],(0.0) %
same,"Ordinal Score at Day 7 = 3 (Hospitalized, on non-invasive ventilation or high flow oxygen devices), no. of patients",[9],0
same,"Ordinal Score at Day 7 = 4 (Hospitalized, requiring supplemental oxygen), % of patients",[9],(25.0) %
same,"Ordinal Score at Day 7 = 4 (Hospitalized, requiring supplemental oxygen), no. of patients",[9],1
same,"Ordinal Score at Day 7 = 5 (Hospitalized, not requiring supplemental oxygen), % of patients",[9],(25.0) %
same,"Ordinal Score at Day 7 = 5 (Hospitalized, not requiring supplemental oxygen), no. of patients",[9],1
same,"Ordinal Score at Day 7 = 7 (Not hospitalized), % of patients",[9],(0.0) %
same,"Ordinal Score at Day 7 = 7 (Not hospitalized), no. of patients",[9],0
same,"Ordinal Score at Day 28 = 1 (Death), % of patients",[9],(50.0) %
same,"Ordinal Score at Day 28 = 1 (Death), no. of patients",[9],2
same,"Ordinal Score at Day 28 = 2 (Hospitalized, on invasive mechanical ventilation or ECMO), % of patients",[9],(0.0) %
same,"Ordinal Score at Day 28 = 2 (Hospitalized, on invasive mechanical ventilation or ECMO), no. of patients",[9],0
same,"Ordinal Score at Day 28 = 3 (Hospitalized, on non-invasive ventilation or high flow oxygen devices), % of patients",[9],(0.0) %
same,"Ordinal Score at Day 28 = 3 (Hospitalized, on non-invasive ventilation or high flow oxygen devices), no. of patients",[9],0
same,"Ordinal Score at Day 28 = 4 (Hospitalized, requiring supplemental oxygen), % of patients",[9],(0.0) %
same,"Ordinal Score at Day 28 = 4 (Hospitalized, requiring supplemental oxygen), no. of patients",[9],0
same,"Ordinal Score at Day 28 = 7 (Not hospitalized), % of patients",[9],(50.0) %
same,"Ordinal Score at Day 28 = 7 (Not hospitalized), no. of patients",[9],2
same,No. of deaths by day 7,[10],0
same,No. of deaths by day 28,[10],1
same,"Ordinal Score at Day 7 = 1 (Death), % of patients",[10],(0.0) %
same,"Ordinal Score at Day 7 = 1 (Death), no. of patients",[10],0
same,"Ordinal Score at Day 7 = 2 (Hospitalized, on invasive mechanical ventilation or ECMO), % of patients",[10],(61.5) %
same,"Ordinal Score at Day 7 = 2 (Hospitalized, on invasive mechanical ventilation or ECMO), no. of patients",[10],8
same,"Ordinal Score at Day 7 = 3 (Hospitalized, on non-invasive ventilation or high flow oxygen devices), % of patients",[10],(23.1) %
same,"Ordinal Score at Day 7 = 3 (Hospitalized, on non-invasive ventilation or high flow oxygen devices), no. of patients",[10],3
same,"Ordinal Score at Day 7 = 4 (Hospitalized, requiring supplemental oxygen), % of patients",[10],(0.0) %
same,"Ordinal Score at Day 7 = 4 (Hospitalized, requiring supplemental oxygen), no. of patients",[10],0
same,"Ordinal Score at Day 7 = 5 (Hospitalized, not requiring supplemental oxygen), % of patients",[10],(7.7) %
same,"Ordinal Score at Day 7 = 5 (Hospitalized, not requiring supplemental oxygen), no. of patients",[10],1
same,"Ordinal Score at Day 7 = 7 (Not hospitalized), % of patients",[10],(7.7) %
